Measurements taken from PubChem BioAssay AID2060483 (Molecular Pharmacology Branch, DTP, NCI, 2025).
Values joined by “and” are separate entries in the source; they are usually repeats but may differ in a detail not shown here. Equal values may be shown once.

System: K24384-001-R-PDC complex spheroids, viability
Assay: Anticancer human tumor K24384-001-R-PDC patient-derived pancreatic adenocarcinoma cell line growth inhibition [GQUAD]
Conditions: for viability, T/C: stronger effect = lower value
Text: DNA G-quadruplex Stabilizer Agents in Combinations in Complex Spheroids
A high-throughput screen of multi-cell type tumor spheroids was designed to identify active combinations of DNA G-quadruplex stabilizer agents and targeted small molecules. Complex spheroids include a stromal component modeled by human endothelial cells (HUVEC) and fibroblasts modeled by human mesenchymal stem cells (MSCs). The concentration ranges selected for each drug and investigational agent were based upon clinically achievable concentrations if the clinical Cmax of the agent was known.
Compounds. The drugs and investigational agents: pidnarulex (CX-5461; NSC782164), APTO-253 (NSC789042), BRACO-19 (NSC847499), peposertib (NSC802822), ceralasertib (NSC780249), elimusertib (NSC800525), camonsertib (NSC841442), AZD-1390 (NSC803789), olaparib (NSC753686), talazoparib (NSC767125), ART-558 (NSC835418), sotorasib (NSC818433), MRTX-1133 (NSC836407), SN-38 (NSC673596), topotecan (NSC609699), etoposide (NSC141540), doxorubicin (NSC123127), gemcitabine (NSC613327), 5-fluorouracil (NSC19893), paclitaxel (NSC125973), vemurafenib (NSC761431), panobinostat (NSC761190), R-306465 (JNJ-16241199; NSC773264), adavosertib (NSC754352), TP-3654 (NSC805149), carboplatin (NSC241240), KSQ-4279 (NSC840948), and staurosporine (NSC755774) were obtained from the National Cancer Institute (NCI) Developmental Therapeutics Program Chemical Repository (34). The FDA-approved anticancer drug set is available from the NCI Developmental Therapeutics Program. […] The stock solutions were prepared in dimethyl sulfoxide (DMSO, Sigma-Aldrich, St. Louis, MO, cat. D2650) at 800-fold the tested concentration and stored at -70 degrees C prior to their use. All drugs and investigational agents were tested over a range starting from a high concentration at or near the clinical Cmax and decreasing in half-log increments. If the clinical Cmax for an agent had not been determined, the highest concentration tested was 10 microM.
2.3 Cell Culture. All cells were maintained in an incubator at 37 degrees C and 5% CO2 with 95% humidity. The PDC lines were cultured according to standard operating procedures established by the NCI PDMR. All PDCs were thawed and cultured in Matrigel-coated flasks prepared with a working solution of 1X Ham's F-12 nutrient mix, without supplementation (Invitrogen, cat. 11765054), 100 U/mL penicillin-streptomycin (Invitrogen, cat. 15140122), and 2.5% Matrigel (Corning Inc., cat. 354248) for the first three passages. The 857933-349-R-J2-PDC line was cultured in 6C/Colon 1B media, which includes advanced DMEM/F-12 (Thermo Fisher Scientific, cat. 12634028), 10 mM HEPES (Thermo Fisher Scientific, cat. 15630080), 1X GlutaMAX supplement (Thermo Fisher Scientific, cat. 35050061), 0.1 mg/mL primocin (InvivoGen, cat. ant-pm-2), 10% defined fetal bovine serum, heat inactivated (HyClone Laboratories Inc., cat. SH30070.03HI), 50% L-WRN conditioned media (ATCC, cat. CRL-3276), 1.25 mM N-Acetyl-L-cysteine (Sigma-Aldrich, cat. A9165), 10 mM nicotinamide (Sigma-Aldrich, cat. N0636), 1X B-27 supplement (Thermo Fisher Scientific, cat. 17504044), 1X N-2 supplement (Thermo Fisher Scientific, cat. 17502048), 10 microM Y-27632 dihydrochloride (Tocris Bioscience, cat. 1254), and 50 ng/mL human EGF recombinant protein (Thermo Fisher Scientific, cat. PHG0311). The 485176-168-R4-J1-PDC line was cultured in Panc media, which includes all 6C/Colon 1B media components plus 100 ng/mL human FGF-10 (Thermo Fisher Scientific, cat. 100-26), 500 nM SB-431542 (Selleckchem, cat. S1067), and gastrin (Tocris, cat. 3006).
[…]

[1] = curve of first compound, second compound 0.0316 µM
[2] = curve of first compound, second compound 0.1 µM
[3] = curve of first compound, second compound 0.316 µM
[4] = curve of first compound, second compound 1 µM
[5] = curve of first compound, second compound 3.16 µM
[6] = curve of first compound, second compound 10 µM
[7] = second compound 0.0316 µM, first compound 0.0316 µM
[8] = second compound 0.0316 µM, first compound 0.1 µM
[9] = second compound 0.0316 µM, first compound 0.316 µM
[10] = second compound 0.0316 µM, first compound 1 µM
[11] = second compound 0.0316 µM, first compound 3.16 µM
[12] = second compound 0.0316 µM, first compound 10 µM
[13] = second compound 0.1 µM, first compound 0.0316 µM
[14] = second compound 0.1 µM, first compound 0.1 µM
[15] = second compound 0.1 µM, first compound 0.316 µM
[16] = second compound 0.1 µM, first compound 1 µM
[17] = second compound 0.1 µM, first compound 3.16 µM
[18] = second compound 0.1 µM, first compound 10 µM
[19] = second compound 0.316 µM, first compound 0.0316 µM
[20] = second compound 0.316 µM, first compound 0.1 µM
[21] = second compound 0.316 µM, first compound 0.316 µM
[22] = second compound 0.316 µM, first compound 1 µM
[23] = second compound 0.316 µM, first compound 3.16 µM
[24] = second compound 0.316 µM, first compound 10 µM
[25] = second compound 1 µM, first compound 0.0316 µM
[26] = second compound 1 µM, first compound 0.1 µM
[27] = second compound 1 µM, first compound 0.316 µM
[28] = second compound 1 µM, first compound 1 µM
[29] = second compound 1 µM, first compound 3.16 µM
[30] = second compound 1 µM, first compound 10 µM
[31] = second compound 3.16 µM, first compound 0.0316 µM
[32] = second compound 3.16 µM, first compound 0.1 µM
[33] = second compound 3.16 µM, first compound 0.316 µM
[34] = second compound 3.16 µM, first compound 1 µM
[35] = second compound 3.16 µM, first compound 3.16 µM
[36] = second compound 3.16 µM, first compound 10 µM
[37] = second compound 10 µM, first compound 0.0316 µM
[38] = second compound 10 µM, first compound 0.1 µM
[39] = second compound 10 µM, first compound 0.316 µM
[40] = second compound 10 µM, first compound 1 µM
[41] = second compound 10 µM, first compound 3.16 µM
[42] = second compound 10 µM, first compound 10 µM
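Also: spheroids exposed to compounds for seven days.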

With `Cc1[nH]c2ccccc2c1CCNCc1ccc(/C=C/C(=O)NO)cc1` the viability, T/C (compound 0.000999 µM) was 103% and 120% and 118%, the viability, T/C (compound 0.00316 µM) was 96.8% and 103% and 92.5% and the viability, T/C (compound 0.00999 µM) was 92.9% and 110% and 98.1%. The viability, T/C (compound 0.0316 µM) was 90% and 89.4% and 90.5%, the viability, T/C (compound 0.0999 µM) was 56.2% and 61% and 48.7% and the viability, T/C (compound 0.316 µM) was 6.17% and 6.7% and 5.53%. For the same compound, the IC50 (curve of compound) was 116 nM and 126 nM and 101 nM.

Compound `CC1COCCN1c1cc(C2(O)CC3CCC(C2)O3)c2cnn(-c3ccn[nH]3)c2n1` (configuration not stated) + Cc1[nH]c2ccc(F)cc2c1-c1nc2c3cccnc3c3ncccc3c2[nH]1 has an IC50 [1] of 230 nM, an IC50 [2] of 209 nM and an IC50 [3] of 179 nM. For the same compound, the IC50 [4] was 182 nM, the IC50 [5] was 139 nM and the IC50 [6] was 61.1 nM. For the same compound, the viability, T/C [7] was 75.8%, the viability, T/C [8] was 57.4% and the viability, T/C [9] was 51.6%. For the same compound, the viability, T/C [10] was 27%, the viability, T/C [11] was 24.5% and the viability, T/C [12] was 19.8%. It also gave a viability, T/C [13] of 65.6%, a viability, T/C [14] of 82.1% and a viability, T/C [15] of 36.4%. The viability, T/C [16] was 30.2%, the viability, T/C [17] was 33.5% and the viability, T/C [18] was 22.7%. The viability, T/C [19] was 69%, the viability, T/C [20] was 54.9% and the viability, T/C [21] was 44.2%. The viability, T/C [22] was 32.4%, the viability, T/C [23] was 32.9% and the viability, T/C [24] was 19.1%. The viability, T/C [25] was 77.3%, the viability, T/C [26] was 59.7% and the viability, T/C [27] was 37.2%. The viability, T/C [28] was 35.2%, the viability, T/C [29] was 32.4% and the viability, T/C [30] was 18.1%. For the same compound, the viability, T/C [31] was 53.8%, the viability, T/C [32] was 63.4% and the viability, T/C [33] was 28.4%. For the same compound, the viability, T/C [34] was 30.5%, the viability, T/C [35] was 28.7% and the viability, T/C [36] was 13.2%. For the same compound, the viability, T/C [37] was 55.3%, the viability, T/C [38] was 50.9% and the viability, T/C [39] was 26.2%. It also gave a viability, T/C [40] of 28.4%, a viability, T/C [41] of 22.9% and a viability, T/C [42] of 9.97%.

In the case of `Cc1[nH]c2ccc(F)cc2c1-c1nc2c3cccnc3c3ncccc3c2[nH]1`, the viability, T/C (compound 0.0316 µM) is reported as 109% [middle of 12 runs], the viability, T/C (compound 0.1 µM) is reported as 102% [middle of 12 runs] and the viability, T/C (compound 0.316 µM) is reported as 99% [middle of 12 runs]. The viability, T/C (compound 3.16 µM) was 65.3% [middle of 12 runs], the IC50 (compound alone, run of 02/20/2024) was > 10000 nM and 9080 nM and the IC50 (compound alone, run of 02/26/2024) was over 10000 nM.

`C=CCn1c(=O)c2cnc(Nc3ccc(N4CCN(C)CC4)cc3)nc2n1-c1cccc(C(C)(C)O)n1` + Cc1[nH]c2ccc(F)cc2c1-c1nc2c3cccnc3c3ncccc3c2[nH]1 showed an IC50 [1] of 436 nM, an IC50 [2] of 285 nM and an IC50 [3] of 420 nM. It also gave an IC50 [4] of 241 nM, an IC50 [5] of 192 nM and an IC50 [6] of 159 nM. It also gave a viability, T/C [7] of 94.8%, a viability, T/C [8] of 77.8% and a viability, T/C [9] of 63.1%. It also gave a viability, T/C [10] of 19.3%, a viability, T/C [11] of 14.9% and a viability, T/C [12] of 16.6%. The viability, T/C [13] was 98.7%, the viability, T/C [14] was 95% and the viability, T/C [15] was 45.5%. The viability, T/C [16] was 19.7%, the viability, T/C [17] was 16.8% and the viability, T/C [18] was 18.8%. The viability, T/C [19] was 89.6%, the viability, T/C [20] was 84.5% and the viability, T/C [21] was 60.6%. It also gave a viability, T/C [22] of 17%, a viability, T/C [23] of 18.8% and a viability, T/C [24] of 15.2%. It also gave a viability, T/C [25] of 79.5%, a viability, T/C [26] of 71.9% and a viability, T/C [27] of 43.6%. It also gave a viability, T/C [28] of 17.2%, a viability, T/C [29] of 18.4% and a viability, T/C [30] of 16.6%. It also gave a viability, T/C [31] of 73%, a viability, T/C [32] of 63% and a viability, T/C [33] of 40%. The viability, T/C [34] was 13.6%, the viability, T/C [35] was 21.1% and the viability, T/C [36] was 19.1%. It also gave a viability, T/C [37] of 79%, a viability, T/C [38] of 53.2% and a viability, T/C [39] of 46.2%. For the same compound, the viability, T/C [40] was 16.3%, the viability, T/C [41] was 14.5% and the viability, T/C [42] was 17.1%.
